Test results as given in ChEMBL document CHEMBL4251629, “BODIPYs to the rescue: Potential applications in photodynamic inactivation” (2018).

Assays:
Escherichia coli [1] = test: Photodynamic antibacterial activity against ROS-induced stressed Escherichia coli ATCC 25922 assessed as log reduction in viable cells at 10 uM preincubated for 30 mins followed by 3.6 J/cm2 irradiation for 1 hr mins by fluorescence microscopy; assay type: functional
Candida albicans [2] = test: Photodynamic antibacterial activity against Candida albicans PC31 assessed as log reduction in viable cells at 5 uM preincubated for 30 mins followed by immediate irradiation at 126 J/cm2 in presence of 50 mM KI by fluorescence microscopy; assay type: functional
Staphylococcus aureus [3] = test: Photodynamic antibacterial activity against Staphylococcus aureus ATCC 25923 assessed as log reduction in viable cells at 1 uM preincubated for 30 mins followed by immediate irradiation at 21 J/cm2 in presence of 50 mM KI by fluorescence microscopy; assay type: functional
Escherichia coli [4] = test: Photodynamic antibacterial activity against Escherichia coli EC7 assessed as log reduction in viable cells at 5 uM preincubated for 30 mins followed by immediate irradiation at 63 J/cm2 in presence of 50 mM KI by fluorescence microscopy; assay type: functional
Nakaseomyces glabratus = test: Photodynamic antifungal activity against Candida glabrata ATCC 15545 assessed as log reduction in viable cells at 1 uM in presence of 118 J/cm2 irradiation; assay type: functional
Candida albicans [5] = test: Photodynamic antifungal activity against Candida albicans ATCC 90028 assessed as log reduction in viable cells at 1 uM in presence of 118 J/cm2 irradiation; assay type: functional
[6] = system: Vesicular stomatitis virus; test: Photodynamic antiviral activity against vesicular stomatitis virus NJ infected in African green monkey Vero cells assessed as log reduction in viable cells at 0.5 uM in presence of 118 J/cm2 irradiation; assay type: functional, Vesicular stomatitis New Jersey virus
Human adenovirus 5 = test: Photodynamic antiviral activity against Human adenovirus 5 infected in African green monkey Vero cells assessed as log reduction in viable cells at 5 uM in presence of 118 J/cm2 irradiation; assay type: functional
[7] = system: Mycolicibacterium smegmatis; test: Photodynamic antibacterial activity against Mycobacterium smegmatis MC2 155 assessed as log reduction in viable cells at 0.5 uM in presence of 118 J/cm2 irradiation; assay type: functional, str. MC2 155
dengue virus type 1 = test: Photodynamic antiviral activity against Dengue virus 1 infected in African green monkey Vero cells assessed as log reduction in viable cells at 0.1 uM in presence of 118 J/cm2 irradiation; assay type: functional
Pseudomonas aeruginosa = test: Photodynamic antibacterial activity against Pseudomonas aeruginosa PAO1 assessed as log reduction in viable cells at 2.5 uM preincubated for 30 mins followed by 171 J/cm'2 irradiation for 1 hr by confocal laser scanning microscopy; assay type: functional
Cryptococcus neoformans = test: Photodynamic antifungal activity against Cryptococcus neoformans ATCC 6453 assessed as log reduction in viable cells at 0.5 uM in presence of 118 J/cm2 irradiation; assay type: functional
Escherichia coli [8] = test: Photodynamic antibacterial activity against ROS-induced stressed Escherichia coli ATCC 25922 assessed as log reduction in viable cells at 10 uM preincubated for 1 hr followed by 9.36 J/cm2 irradiation for 2 hrs mins by fluorescence microscopy; assay type: functional
Bacillus thuringiensis = test: Photodynamic antibacterial activity against Bacillus thuringiensis NRS 1124 ATCC 19268 assessed as log reduction in viable cells at 10 uM preincubated for 20 mins followed by 180 J/cm2 irradiation for 60 mins by fluorescence microscopy; assay type: functional
Klebsiella pneumoniae = test: Photodynamic antibacterial activity against Klebsiella pneumoniae subsp. pneumoniae ATCC 33495 assessed as log reduction in viable cells at 10 uM preincubated for 20 mins followed by 180 J/cm2 irradiation for 60 mins by fluorescence microscopy; assay type: functional
Escherichia coli [9] = test: Photodynamic antibacterial activity against Escherichia coli DH5alpha assessed as log reduction in viable cells 10 uM preincubated for 20 mins followed by 180 J/cm2 irradiation for 60 mins by fluorescence microscopy; assay type: functional, DH5[alpha]
Staphylococcus aureus [10] = test: Photodynamic antibacterial activity against Staphylococcus aureus NRS11 assessed as log reduction in viable cells at 10 uM preincubated for 20 mins followed by 180 J/cm2 irradiation for 60 mins by fluorescence microscopy; assay type: functional

CC(=O)OCC1c2c(C)c(Br)c(C)n2[B-](F)(F)[N+]2=C(C)C(Br)=C(C)C12 (configuration not stated)
log(activity) (Escherichia coli [1]): 5.5

CC1=CC(C)=[N+]2C1C(c1ccc(OCCC[N+](C)(C)C)cc1)c1c(C)cc(C)n1[B-]2(F)F (configuration not stated)
log(activity) (Candida albicans [2]): 3.5 | log(activity) (Staphylococcus aureus [3]): 4.5 | log(activity) (Escherichia coli [4]): 6.5

CC1=C(I)C(C)=[N+]2C1C(c1cc[n+](C)cc1)c1c(C)c(I)c(C)n1[B-]2(F)F (configuration not stated)
log(activity) (Nakaseomyces glabratus): 3 | log(activity) (Candida albicans [5]): 5 | log(activity) [6]: 5 | log(activity) (Human adenovirus 5): 2 | log(activity) [7]: 3 | log(activity) (dengue virus type 1): 6 | log(activity) (Pseudomonas aeruginosa): 7 | log(activity) (Cryptococcus neoformans): 5

CC(=O)OCC1c2c(C)c(I)c(C)n2[B-](F)(F)[N+]2=C(C)C(I)=C(C)C12 (configuration not stated)
log(activity) (Escherichia coli [1]): 5.5

CC1=C(Br)C(C)=[N+]2C1C(CC1(C)CCc3c(C)c(O)c(C)c(C)c3O1)c1c(C)c(Br)c(C)n1[B-]2(F)F (configuration not stated)
log(activity) (Escherichia coli [8]): 5.5

CC1=C(C)C2(OO)OC(C)(CC3c4c(C)c(Br)c(C)n4[B-](F)(F)[N+]4=C(C)C(Br)=C(C)C34)CCC2=C(C)C1=O (configuration not stated)
log(activity) (Escherichia coli [8]): 5.5

CC1=C(I)C(C)=[N+]2C1C(c1cc(CN(Cc3ccccn3)Cc3ccccn3)cc(CN(Cc3ccccn3)Cc3ccccn3)c1)c1c(C)c(I)c(C)n1[B-]2(F)F (configuration not stated)
log(activity) (Bacillus thuringiensis): 4.5 | log(activity) (Klebsiella pneumoniae): 2.2 | log(activity) (Escherichia coli [9]): 3.5 | log(activity) (Staphylococcus aureus [10]): 4.5

CC1=CC(C)=[N+]2C1C(c1ccc([N+](C)(C)C)cc1)c1c(C)cc(C)n1[B-]2(F)F (configuration not stated)
log(activity) (Candida albicans [2]): 5.5 | log(activity) (Staphylococcus aureus [3]): 5 | log(activity) (Escherichia coli [4]): 3.5
